# Results as given in PMC9469208 (Journal of Medicinal Chemistry, 2022).
# Where two headings read alike, the source gives them in different places.
# Key:
# GlyRA1 = molecular target: T1, GlyRA1 (Homo sapiens, UniProt P23415); format: cell-based
# T1 construct: purchased Cerep (Eurofins), Poitiers, France; Promega P450-Glo; in-house COS-7 uptake assays
# T1 sequence (P23415 29-457): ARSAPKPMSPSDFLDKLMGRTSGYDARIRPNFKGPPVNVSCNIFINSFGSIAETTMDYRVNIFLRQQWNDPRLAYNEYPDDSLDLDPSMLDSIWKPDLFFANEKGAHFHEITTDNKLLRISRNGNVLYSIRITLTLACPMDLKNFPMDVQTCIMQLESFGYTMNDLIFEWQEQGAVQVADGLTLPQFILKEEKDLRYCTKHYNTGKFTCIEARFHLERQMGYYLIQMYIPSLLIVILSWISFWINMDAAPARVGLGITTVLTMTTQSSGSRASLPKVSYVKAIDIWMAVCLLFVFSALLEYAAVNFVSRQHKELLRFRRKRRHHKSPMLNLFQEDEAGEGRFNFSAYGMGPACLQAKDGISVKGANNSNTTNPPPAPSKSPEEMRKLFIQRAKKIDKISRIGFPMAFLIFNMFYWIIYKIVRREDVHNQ
# [1] = system: motor coordination of mice; conditions: mouse, in vivo, ip; cited from earlier work
# [2] = system: 6 Hz (32 mA) seizures in mice; conditions: mouse, in vivo; cited from earlier work
# [3] = system: maximal electroshock seizures in mice; conditions: mouse, in vivo; cited from earlier work
# hCav3.2 = hCav3.2 (Homo sapiens, UniProt O95180); experiment: cell-based
# [4] = system: PTZ-induced seizures in mice; conditions: mouse, in vivo; cited from earlier work
# [5] = system: PTZ-induced kindling in mice; conditions: VPA 150 mg/kg i.p. (positive control)
# Chain of hCav3.2 (O95180 whole entry): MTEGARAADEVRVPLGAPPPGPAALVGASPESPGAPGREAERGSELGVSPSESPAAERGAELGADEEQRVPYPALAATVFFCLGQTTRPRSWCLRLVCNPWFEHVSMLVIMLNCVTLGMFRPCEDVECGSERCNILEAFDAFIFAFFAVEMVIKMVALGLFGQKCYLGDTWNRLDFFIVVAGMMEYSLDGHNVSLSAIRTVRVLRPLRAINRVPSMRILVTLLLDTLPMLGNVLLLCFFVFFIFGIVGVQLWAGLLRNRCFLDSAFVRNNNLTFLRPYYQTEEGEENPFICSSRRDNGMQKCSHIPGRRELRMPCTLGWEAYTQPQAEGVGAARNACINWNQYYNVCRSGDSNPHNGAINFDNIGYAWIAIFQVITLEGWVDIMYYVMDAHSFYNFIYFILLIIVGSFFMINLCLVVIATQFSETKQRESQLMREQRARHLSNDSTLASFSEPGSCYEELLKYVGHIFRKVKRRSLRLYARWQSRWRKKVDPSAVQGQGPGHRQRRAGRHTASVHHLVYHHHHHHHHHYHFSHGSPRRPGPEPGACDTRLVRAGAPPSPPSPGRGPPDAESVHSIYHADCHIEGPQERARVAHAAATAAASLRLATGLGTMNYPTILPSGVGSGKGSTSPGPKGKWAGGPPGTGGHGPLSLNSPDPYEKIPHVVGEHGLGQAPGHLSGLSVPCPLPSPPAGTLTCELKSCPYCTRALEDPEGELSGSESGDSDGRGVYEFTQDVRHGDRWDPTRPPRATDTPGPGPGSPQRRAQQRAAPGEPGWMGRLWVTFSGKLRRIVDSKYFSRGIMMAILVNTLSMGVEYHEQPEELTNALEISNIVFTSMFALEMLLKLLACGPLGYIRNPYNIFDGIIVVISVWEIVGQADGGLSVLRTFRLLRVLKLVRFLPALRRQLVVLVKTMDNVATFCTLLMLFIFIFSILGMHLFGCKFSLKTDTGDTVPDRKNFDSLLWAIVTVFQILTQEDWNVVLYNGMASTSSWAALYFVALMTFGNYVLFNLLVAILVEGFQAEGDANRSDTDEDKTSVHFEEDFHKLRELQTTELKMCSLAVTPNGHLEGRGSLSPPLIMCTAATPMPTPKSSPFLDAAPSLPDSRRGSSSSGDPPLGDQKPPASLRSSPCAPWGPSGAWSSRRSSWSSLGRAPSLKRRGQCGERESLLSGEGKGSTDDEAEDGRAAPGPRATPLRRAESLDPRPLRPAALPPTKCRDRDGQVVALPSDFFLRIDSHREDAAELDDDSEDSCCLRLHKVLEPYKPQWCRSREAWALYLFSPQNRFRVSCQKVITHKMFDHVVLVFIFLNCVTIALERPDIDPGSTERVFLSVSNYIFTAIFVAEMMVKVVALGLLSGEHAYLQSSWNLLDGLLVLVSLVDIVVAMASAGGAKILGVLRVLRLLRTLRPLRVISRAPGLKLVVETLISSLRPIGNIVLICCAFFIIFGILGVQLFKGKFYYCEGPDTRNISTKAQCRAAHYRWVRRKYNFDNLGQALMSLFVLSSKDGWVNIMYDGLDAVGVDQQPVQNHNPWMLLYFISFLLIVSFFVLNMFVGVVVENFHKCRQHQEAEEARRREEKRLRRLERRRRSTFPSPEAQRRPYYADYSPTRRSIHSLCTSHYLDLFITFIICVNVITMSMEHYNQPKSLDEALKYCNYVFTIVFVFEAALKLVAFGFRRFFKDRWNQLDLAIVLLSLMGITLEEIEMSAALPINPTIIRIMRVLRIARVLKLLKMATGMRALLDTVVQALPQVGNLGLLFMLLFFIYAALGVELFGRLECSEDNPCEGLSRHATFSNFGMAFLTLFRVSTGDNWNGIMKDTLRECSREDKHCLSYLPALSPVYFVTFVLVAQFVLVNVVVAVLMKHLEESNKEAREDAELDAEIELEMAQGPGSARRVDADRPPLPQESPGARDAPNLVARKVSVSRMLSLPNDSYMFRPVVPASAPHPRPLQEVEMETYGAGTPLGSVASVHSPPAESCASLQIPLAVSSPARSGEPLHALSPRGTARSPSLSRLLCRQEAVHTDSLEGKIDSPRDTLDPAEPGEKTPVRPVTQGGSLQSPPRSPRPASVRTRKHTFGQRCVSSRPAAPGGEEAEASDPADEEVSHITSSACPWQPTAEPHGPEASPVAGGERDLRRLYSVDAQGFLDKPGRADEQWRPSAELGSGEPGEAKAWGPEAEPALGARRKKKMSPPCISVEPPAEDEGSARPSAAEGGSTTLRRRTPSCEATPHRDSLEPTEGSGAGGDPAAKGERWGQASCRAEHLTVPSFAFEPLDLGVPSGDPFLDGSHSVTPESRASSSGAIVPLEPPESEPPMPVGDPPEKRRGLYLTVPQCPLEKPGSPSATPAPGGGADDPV
compound,measurement,setting,value
"NCC(=O)O [Glycine, reference compound]","GlyRA1 agonist, % Control, Mean",GlyRA1,89.99%
same,"GlyRA1 agonist, % Control, n1",GlyRA1,92.59%
same,"GlyRA1 agonist, % Control, n2",GlyRA1,87.38%
CC(C(=O)NCc1ccccc1F)N1C(=O)CCC1=O (stereo not shown) [II],TD50 (rotarod),[1],300.9 (256.7–352.6) mg/kg
"COC[C@@H](NC(C)=O)C(=O)NCc1ccccc1 [LCS, lacosamide]",ED50 (6 Hz 32 mA),[2],5.3 (3.5–7.8) mg/kg
same,ED50 (MES),[3],9.2 (8.5–10.0) mg/kg
"CC[C@@H](C(N)=O)N1CCCC1=O [LEV, levetiracetam]",ED50 (MES),[3],>500 mg/kg
"COCC(=O)O[C@]1(CCN(C)CCCc2nc3ccccc3[nH]2)CCc2cc(F)ccc2[C@@H]1C(C)C [Mibefradil, reference compound]",inhibition at 30 µM,"hCav3.2; read-out: hCav3.2 % Inhibition, Mean",95.5%
same,inhibition at 30 µM,"hCav3.2; read-out: hCav3.2 % Inhibition, n1",96.1%
same,inhibition at 30 µM,"hCav3.2; read-out: hCav3.2 % Inhibition, n2",94.8%
"CCCC(CCC)C(=O)O [VPA, valproic acid]",ED50 (6 Hz 32 mA),[2],130.6 (117.6–145.2) mg/kg
same,ED50 (scPTZ),[4],239.4 (209.2–274.1) mg/kg
same,effect on kindling development,[5],suppressed kindling development
